From US9586978B2, “Anti-viral compounds” (AbbVie Inc., priority 2009, dated 2017)
Where two headings read alike, the source gives them in different places.

Legend:
HCV genotype 1a replicon = HCV genotype 1a replicon assay; type: cell-based, Hepatitis C virus; settings: Hepatitis C virus
Description: (§1) [drawing 14] employs a biphenyl linker between the imidazole moieties. See WO2008021927(BMS). The EC50 values of BMS-790052 against different HCV genotypes were shown by Nettles et al., “BMS-790052 is a First-in-class Potent Hepatitis C Virus (HCV) NS5A Inhibitor for Patients with Chronic HCV Infection: Results from a Proof-of-concept Study”, 59th Annual Meeting of the American Association for the Study of Liver Diseases (Oct. 31-Nov. 1, 2008, San Francisco, Calif.; www.natap.org/2008/AASLD/AASLD_06.htm). […] See also Gao et al., NATURE 465:96-100 (2010). The compounds in Table 1 use different linkers between the imidazole moieties. Table 1 depicts the EC50 values of these compounds when tested using respective replicon assays in the presence of 5% (v/v) fetal bovine serum (FBS).
(§2) Table 2 compares compounds containing unsubstituted benzimidazole to those containing halo-substituted benzimidazole. Anti-viral activities were assessed using wild-type replicons (e.g., 1b WT or 1a WT) as well as replicons containing specific NS5A mutations (e.g., 1b L28T, 1b Y93H, 1a L31V, 1a Y93C, 1a M28V, or 1a Q30E) in the absence of FBS.
(§3) Table 3 compares compounds with different linkers between the benzimidazole moieties. Anti-viral activities were determined using 1a and 1b replicon assays. “HP” refers to human plasma. […] As compared to the phenyl linker

HCV genotype 1b replicon = HCV genotype 1b replicon assay; type: cell-based, Hepatitis C virus; settings: Hepatitis C virus
Description: as §1, §2, §3

[1] = test system: HCV 1b replicon containing NS5A mutation L28T; assay: HCV 1b L28T replicon assay; type: cell-based; settings: Hepatitis C virus, read-out: EC50 (nM) 1b L28T
Protocol: as §2

[2] = test system: HCV 1b replicon containing NS5A mutation Y93H; assay: HCV 1b Y93H replicon assay; type: cell-based, Hepatitis C virus; settings: Hepatitis C virus, read-out: EC50 (nM) 1b Y93H
Protocol: as §2

[3] = test system: HCV 1a replicon containing NS5A mutation L31V; assay: HCV 1a L31V replicon assay; type: cell-based, Hepatitis C virus; settings: for EC50: Hepatitis C virus, read-out: EC50 (nM) 1a L31V
Protocol: as §2

[4] = test system: HCV 1a replicon containing NS5A mutation Y93C; assay: HCV 1a Y93C replicon assay; type: cell-based; settings: Hepatitis C virus, read-out: EC50 (nM) 1a Y93C
Protocol: as §2

[5] = test system: HCV 1a replicon containing NS5A mutation M28V; assay: HCV 1a M28V replicon assay; type: cell-based; settings: Hepatitis C virus, read-out: EC50 (nM) 1a M28V
Protocol: as §2

[6] = test system: HCV 1a replicon containing NS5A mutation Q30E; assay: HCV 1a Q30E replicon assay; type: cell-based; settings: Hepatitis C virus, read-out: EC50 (nM) 1a Q30E
Protocol: as §2

HCV genotype 2a replicon = HCV genotype 2a replicon assay; type: cell-based, Hepatitis C virus; settings: Hepatitis C virus, absence of human plasma; Table 5; read-out: EC50 (nM, in the absence of HP) 2a
Description: as §1

HCV genotype 2b replicon = HCV genotype 2b replicon assay; type: cell-based, Hepatitis C virus; settings: Hepatitis C virus, absence of human plasma; Table 5; read-out: EC50 (nM, in the absence of HP) 2b
Description: as §1

HCV genotype 3a replicon = HCV genotype 3a replicon assay; type: cell-based, Hepatitis C virus; settings: Hepatitis C virus, read-out: EC50 (nM, in the absence of HP) 3a, absence of human plasma; Table 5
Description: as §1

HCV genotype 4a replicon = HCV genotype 4a replicon assay; type: cell-based, Hepatitis C virus; settings: Hepatitis C virus, absence of human plasma; Table 5; read-out: EC50 (nM, in the absence of HP) 4a
Description: as §1

HCV 1b-Con1 replicon = HCV 1b-Con1 replicon assay in the presence of 5% FBS (luciferase reporter); type: cell-based; settings: Hepatitis C virus
[7] = wild-type replicon, in the absence of FBS, read-out: EC50 (nM) 1a WT
[8] = wild-type replicon, in the absence of FBS, read-out: EC50 (nM) 1b WT
[9] = 40% human plasma, Table 5, read-out: EC50 (nM, in the presence of 40% HP) 1a
[10] = 40% human plasma, Table 5, read-out: EC50 (nM, in the presence of 40% HP) 1b

## COC(=O)N[C@H](C(=O)N1CCC[C@H]1c1nc2c(F)cc(-c3ccc(-c4cc(F)c5nc([C@@H]6CCCN6C(=O)[C@@H](NC(=O)OC)C(C)C)[nH]c5c4)cc3)cc2[nH]1)C(C)C
HCV genotype 1a replicon; [7]
  EC50: 0.26 nM
HCV genotype 1b replicon; [8]
  EC50: 0.004 nM
[1]
  EC50: 4.3 nM
[2]
  EC50: 2.4 nM
[3]
  EC50: 5.5 nM
[4]
  EC50: 34 nM
[5]
  EC50: 1.8 nM
[6]
  EC50: 59 nM

## COC(=O)N[C@H](C(=O)N1CCC[C@H]1c1nc2cc(F)c(-c3ccc(-c4c(F)cc5nc([C@@H]6CCCN6C(=O)[C@@H](NC(=O)OC)C(C)C)[nH]c5c4F)cc3)c(F)c2[nH]1)C(C)C
HCV genotype 1a replicon; [7]
  EC50: 0.28 nM
HCV genotype 1b replicon; [8]
  EC50: 0.005 nM
[1]
  EC50: > 10 nM
[2]
  EC50: 5.7 nM
[3]
  EC50: 33 nM
[4]
  EC50: 103 nM
[5]
  EC50: 11.6 nM
[6]
  EC50: 306 nM

## COC(=O)N[C@H](C(=O)N1CCC[C@H]1c1nc2ccc(-c3ccc(-c4ccc5nc([C@@H]6CCCN6C(=O)[C@@H](NC(=O)OC)C(C)C)[nH]c5c4F)cc3)c(F)c2[nH]1)C(C)C
HCV genotype 1a replicon; [7]
  EC50: 0.1 nM
HCV genotype 1b replicon; [8]
  EC50: 0.007 nM
[1]
  EC50: > 10 nM
[2]
  EC50: 3.6 nM
[3]
  EC50: 80 nM
[4]
  EC50: 141 nM
[5]
  EC50: 5.8 nM
[6]
  EC50: 52 nM

## COC(=O)N[C@H](C(=O)N1CCCC1c1nc2c(F)cc(-c3ccc(-c4cc(F)c5nc([C@@H]6CCCN6C(=O)[C@@H](NC(=O)OC)C(C)C)[nH]c5c4)cc3)cc2[nH]1)C(C)C (some centres unmarked)
[3]; compared with unsubstituted benzimidazole reference compound of Table 2
  activity against HCV variants containing NS5A mutations (e.g., 1a L31V): better activity

## COC(=O)N[C@H](C(=O)N1CCC[C@H]1c1nc2cc([C@H]3CC[C@H](c4ccc5[nH]c([C@@H]6CCCN6C(=O)[C@@H](NC(=O)OC)C(C)C)nc5c4)N3c3ccc(N4CCCCC4)c(C(F)(F)F)c3)ccc2[nH]1)C(C)C
HCV genotype 1a replicon; [9]
  EC50: 0.6 nM
HCV genotype 1b replicon; [10]
  EC50: 0.3 nM
HCV genotype 2a replicon
  EC50: 0.5 nM
HCV genotype 2b replicon
  EC50: ≤ 0.05 nM
HCV genotype 3a replicon
  EC50: ≤ 0.05 nM
HCV genotype 4a replicon
  EC50: ≤ 0.05 nM

## COC(=O)N[C@H](C(=O)N1CCC[C@H]1c1nc2cc([C@H]3CC[C@H](c4ccc5[nH]c([C@@H]6CCCN6C(=O)[C@@H](NC(=O)OC)C(C)C)nc5c4)N3c3ccc(N4CCCCC4)c(C#N)c3)ccc2[nH]1)C(C)C
HCV genotype 1a replicon; [9]
  EC50: 0.4 nM
HCV genotype 1b replicon; [10]
  EC50: 0.5 nM
HCV genotype 2a replicon
  EC50: 0.07 nM
HCV genotype 2b replicon
  EC50: ≤ 0.05 nM
HCV genotype 3a replicon
  EC50: ≤ 0.05 nM
HCV genotype 4a replicon
  EC50: ≤ 0.05 nM

## COC(=O)N[C@H](C(=O)N1CCC[C@H]1c1nc2cc([C@H]3CC[C@H](c4ccc5[nH]c([C@@H]6CCCN6C(=O)[C@@H](NC(=O)OC)C(C)C)nc5c4)N3c3cc(F)c(N4CCCCC4)c(F)c3)ccc2[nH]1)C(C)C
HCV genotype 1a replicon; [9]
  EC50: 0.1 nM
HCV genotype 1b replicon; [10]
  EC50: 0.2 nM
HCV genotype 2a replicon
  EC50: ≤ 0.05 nM
HCV genotype 2b replicon
  EC50: ≤ 0.05 nM
HCV genotype 3a replicon
  EC50: ≤ 0.05 nM
HCV genotype 4a replicon
  EC50: ≤ 0.05 nM

## COC(=O)N[C@H](C(=O)N1CCC[C@H]1c1nc2cc([C@H]3CC[C@H](c4ccc5[nH]c([C@@H]6CCCN6C(=O)[C@@H](NC(=O)OC)C(C)C)nc5c4)N3c3ccc(C4CC4)c(F)c3)ccc2[nH]1)C(C)C
HCV genotype 1a replicon; [9]
  EC50: 0.1 nM
HCV genotype 1b replicon; [10]
  EC50: 0.1 nM
HCV genotype 2a replicon
  EC50: ≤ 0.05 nM
HCV genotype 2b replicon
  EC50: ≤ 0.05 nM
HCV genotype 3a replicon
  EC50: ≤ 0.05 nM
HCV genotype 4a replicon
  EC50: ≤ 0.05 nM

## COC(=O)N[C@H](C(=O)N1CCC[C@H]1C(=O)Nc1ccc([C@H]2CC[C@H](c3ccc(NC(=O)[C@@H]4CCCN4C(=O)[C@@H](NC(=O)OC)C(C)C)cc3)N2c2ccc(C(C)(C)C)cc2)cc1)C(C)C
HCV genotype 1a replicon; [9]
  EC50: 0.2 nM
HCV genotype 1b replicon; [10]
  EC50: 0.1 nM
HCV genotype 2a replicon
  EC50: ≤ 0.05 nM
HCV genotype 2b replicon
  EC50: ≤ 0.05 nM
HCV genotype 3a replicon
  EC50: ≤ 0.05 nM
HCV genotype 4a replicon
  EC50: ≤ 0.05 nM

## COC(=O)N[C@H](C(=O)N1CCC[C@H]1c1nc2cc(C3CC[C@H](c4ccc5[nH]c([C@@H]6CCCN6C(=O)[C@@H](NC(=O)OC)C6CCOCC6)nc5c4)N3c3cc(F)c(N4CCCCC4)c(F)c3)ccc2[nH]1)C1CCOCC1 (stereo in doubt) [Example 3.18, dimethyl({(2R,5R)-1-[3,5-difluoro-4-(piperidin-1-yl)phenyl]pyrrolidine-2,5-diyl}bis{1H-benzimidazole-5,2-diyl(2S)pyrrolidine-2,1-diyl[(1S)-2-oxo-1-(tetrahydro-2H-pyran-4-yl)ethane-2,1-diyl]})biscarbamate]
HCV 1b-Con1 replicon
  EC50: < 0.1 nM

## COC(=O)N[C@H](C(=O)N1CCCC1c1nc2cc([C@H]3CCC(c4cc5nc([C@@H]6CCCN6C(=O)[C@@H](NC(=O)OC)C(C)C)[nH]c5cc4F)N3c3cnc(N4CCC(c5ccccc5)CC4)nc3)c(F)cc2[nH]1)C(C)C (stereo in doubt) [Example 3.46, methyl{(2S)-1-[(2S)-2-(6-fluoro-5-{(2R,5S)-5-{6-fluoro-2-[(2S)-1-{(2S)-2-[(methoxycarbonyl)amino]-3-methylbutanoyl}pyrrolidin-2-yl]-1H-benzimidazol-5-yl}-1-[2-(4-phenylpiperidin-1-yl)pyrimidin-5-yl]pyrrolidin-2-yl}-1H-benzimidazol-2-yl)pyrrolidin-1-yl]-3-methyl-1-oxobutan-2-yl}carbamate]
HCV 1b-Con1 replicon
  EC50: < 0.1 nM

## COC(=O)N[C@H](C(=O)N1CCC[C@H]1c1nc2cc([C@H]3CC[C@H](c4ccc5[nH]c([C@@H]6CCCN6C(=O)[C@@H](NC(=O)OC)C(C)C)nc5c4)N3c3ccc(N4CCCCC4=O)cc3)ccc2[nH]1)C(C)C [Example 1.2]
HCV 1b-Con1 replicon
  EC50: > 10000 nM

## COC(=O)N[C@H](C(=O)N1CCC[C@H]1c1nc2cc(C3CC[C@H](c4cc5nc([C@@H]6CCCN6C(=O)[C@@H](NC(=O)OC)C(C)C)[nH]c5cc4F)N3c3cc(F)c(N4CC(C)CC(C)C4)c(F)c3)c(F)cc2[nH]1)C(C)C (stereo partly drawn) [Example 2.16, methyl{(2S)-1-[(2S)-2-{5-[(5R)-1-[4-(3,5-dimethylpiperidin-1-yl)-3,5-difluorophenyl]-5-{6-fluoro-2-[(2S)-1-{(2S)-2-[(methoxycarbonyl)amino]-3-methylbutanoyl}pyrrolidin-2-yl]-1H-benzimidazol-5-yl}pyrrolidin-2-yl]-6-fluoro-1H-benzimidazol-2-yl}pyrrolidin-1-yl]-3-methyl-1-oxobutan-2-yl}carbamate]
HCV 1b-Con1 replicon
  EC50: < 0.1 nM

## CC(C)(C)OC(=O)NCC(=O)N1CCC[C@H]1c1nc2cc([C@@H]3CC[C@@H](c4ccc5[nH]c([C@@H]6CCCN6C(=O)CNC(=O)OC(C)(C)C)nc5c4)N3c3ccc(N4CCCCC4)c(F)c3)ccc2[nH]1 [Example 3.14, tert-butyl {2-[(2S)-2-(5-{(2S,5S)-5-{2-[(2S)-1-{[(tert-butoxycarbonyl)amino]acetyl}pyrrolidin-2-yl]-1H-benzimidazol-5-yl}-1-[3-fluoro-4-(piperidin-1-yl)phenyl]pyrrolidin-2-yl}-1H-benzimidazol-2-yl)pyrrolidin-1-yl]-2-oxoethyl}carbamate]
HCV 1b-Con1 replicon
  EC50: > 10000 nM

## COC(=O)N[C@H](C(=O)N1C(c2nc3cc([C@H]4CCC(c5ccc6[nH]c([C@@H]7C[C@@H]8CCC[C@@H]8N7C(=O)[C@@H](NC(=O)OC)C(C)C)nc6c5)N4c4cc(F)c(N5CCCCC5)c(F)c4)ccc3[nH]2)C[C@@H]2CCC[C@@H]21)C(C)C (some centres unmarked) [Example 4.18]
HCV 1b-Con1 replicon
  EC50: < 0.1 nM

## COC(=O)N[C@H](C(=O)N1C(c2nc3cc([C@H]4CC[C@H](c5ccc6[nH]c([C@@H]7C[C@@H]8CCC[C@@H]8N7C(=O)[C@@H](NC(=O)OC)C(C)C)nc6c5)N4c4ccc(C(C)(C)C)cc4)ccc3[nH]2)C[C@@H]2CCC[C@@H]21)C(C)C (stereo partly drawn) [Example 4.19, methyl{(2S)-1-[(2S,3aS,6aS)-2-{5-[(2R,5R)-1-(4-tert-butylphenyl)-5-{2-[(3aS,6aS)-1-{(2S)-2-[(methoxycarbonyl)amino]-3-methylbutanoyl}octahydrocyclopenta[b]pyrrol-2-yl]-1H-benzimidazol-5-yl}pyrrolidin-2-yl]-1H-benzimidazol-2-yl}hexahydrocyclopenta[b]pyrrol-1(2H)-yl]-3-methyl-1-oxobutan-2-yl}carbamate]
HCV 1b-Con1 replicon
  EC50: < 0.1 nM
